This is an account of results in paper PMC9205682 (Biochimica et biophysica acta. Biomembranes, 2021).

This test deals with Mycobacterial membrane protein large 3 (Mmpl3) (Mycolicibacterium smegmatis, UniProt A0QP27). The test is described as follows: MicroScale Thermophoresis. Type of test: binding.

The structures appear in SMILES notation. pKd: −log10 of the molar value.

Chain of Mycobacterial membrane protein large 3 (Mmpl3) (A0QP27 whole entry): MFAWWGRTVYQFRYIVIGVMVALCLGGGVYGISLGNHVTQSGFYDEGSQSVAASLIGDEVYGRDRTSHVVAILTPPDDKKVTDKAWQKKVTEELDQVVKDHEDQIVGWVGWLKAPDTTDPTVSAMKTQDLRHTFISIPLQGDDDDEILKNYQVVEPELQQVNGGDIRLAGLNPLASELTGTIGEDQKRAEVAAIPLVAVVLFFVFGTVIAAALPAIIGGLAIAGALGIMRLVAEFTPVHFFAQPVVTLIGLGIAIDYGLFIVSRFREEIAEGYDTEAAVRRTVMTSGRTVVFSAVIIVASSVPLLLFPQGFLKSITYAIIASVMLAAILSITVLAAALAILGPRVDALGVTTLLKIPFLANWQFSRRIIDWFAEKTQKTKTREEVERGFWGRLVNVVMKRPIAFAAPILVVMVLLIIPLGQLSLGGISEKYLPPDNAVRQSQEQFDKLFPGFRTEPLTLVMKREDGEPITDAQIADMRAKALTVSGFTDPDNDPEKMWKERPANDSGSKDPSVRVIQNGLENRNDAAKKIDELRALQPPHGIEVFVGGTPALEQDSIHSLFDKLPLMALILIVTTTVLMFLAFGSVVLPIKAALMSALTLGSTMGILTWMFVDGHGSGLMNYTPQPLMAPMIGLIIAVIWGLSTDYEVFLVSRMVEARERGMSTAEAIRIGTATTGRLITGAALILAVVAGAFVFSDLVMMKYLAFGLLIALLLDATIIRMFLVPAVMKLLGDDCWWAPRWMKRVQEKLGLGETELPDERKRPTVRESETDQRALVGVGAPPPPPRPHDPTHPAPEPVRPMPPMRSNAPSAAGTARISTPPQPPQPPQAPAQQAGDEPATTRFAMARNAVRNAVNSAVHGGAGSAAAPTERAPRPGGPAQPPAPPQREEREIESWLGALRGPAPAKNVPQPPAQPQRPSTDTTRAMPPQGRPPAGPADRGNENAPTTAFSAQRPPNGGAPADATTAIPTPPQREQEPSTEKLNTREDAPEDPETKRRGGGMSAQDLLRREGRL

Molecule `CC(C)=CCC/C(C)=C/CNCCNC1C2CC3CC(C2)CC1C3` (stereo not shown) [SQ109] showed a pKd of 5.81.
